For assay [1], the system named is Mdr2−/− mice. The experiment in a line: In vivo treatment of Mdr2−/− mice with L-NAC in drinking water, liver histology (H&E, Sirius Red). Also on record: species or system mouse. Conditions: 4-month old Mdr2−/− mice, 30 gr/L L-NAC in drinking water for 3 weeks. The text has this:
The homozygote, multidrug resistance protein 2 knockout mouse (Mdr2KO or Mdr2^−/−, also known as Abcb4^−/−) lacks the protein MDR2, a canalicular phospholipid flippase that causes a complete absence of phosphatidylcholine in bile. Mdr2^−/− mice are a well-established model for biliary ducts diseases resulting from, or associated with, highly toxic bile. Multidrug resistance P-glycoproteins, Mdr2 in mouse and MDR3 in human, are choline-containing phospholipid phosphatidylcholine (PC) transporters. In the liver, Mdr2/MDR3 are involved in the translocation of PC from the inner leaflet to the outer leaflet of the canalicular membrane of hepatocytes for direct extraction by bile acids. Bile acids and PC are essential components in the bile that form bile acid containing micelles to thereby reduce the toxic detergent activity of bile acid for hepatocytes and cholangiocytes and to establish physiological bile flow. Mdr2 knockout mouse successively develops liver inflammation, hepatic fibrosis, and hepatocellular carcinoma (HCC) at late ages. The pathogenesis in Mdr2^−/− mice is commonly considered to be caused by increased levels of free toxic bile acids in the biliary canaliculus, which damages hepatocytes and cholangiocytes and provokes liver inflammation. This cholangiopathy is similar to human PSC. The wild type and Mdr2 knockout mice used in embodiments described herein are male and female mice of FVB genetic background (FVB/N and FVB/Mdr2^−/− mice, respectively). All mice were maintained under specific pathogen-free conditions with a 12-hour-light-dark cycle and permitted ad libitum consumption of water and a standard chow. FVB/Mdr2^−/− mice are reproducible model of spontaneously progressive chronic biliary liver disease associated with fibrosis, with histological lesions closely resembling human PSC. Though the Mdr2^−/− mouse is well-established for the investigation of PSC, little is known about EHBD injury in this model. 1. […] The liver repair effect in Mdr2^−/− mice treated with L-NAC was assessed. […]

Assay [2] relates to EHBD explants from Mdr2−/− mice. The experiment in a line: Ex-vivo bile duct explant culture of Mdr2−/− EHBDs treated with L-NAC (H&E, K19/ZO-1 immunostaining, DAPI). The format is cell-based, mouse. As for the experimental part:
Intact extrahepatic bile ducts (EHBDs) from 2-week (N≥12) and 16-week (N≥5) old mice were dissected, placed in ice-cold V-7 cold preservation buffer (Vitron) followed by incubation in cholangiocyte medium (also termed herein “BEC medium”), according to a modification of the protocol described by Karjoo and Wells (Isolation of neonatal extrahepatic cholangiocytes. J. Vis. Exp. 2014). Ducts were placed on roller inserts, treated with N-Acetyl-L-cysteine (L-NAC) and other compounds as noted below, and cultured in a high oxygenation Vitron Dynamic Organ Culture Incubator at 37° C., in 95% O2 and 5% CO2, for 1-3 days. In the incubator (designed to optimally incubate tissue slices), the explants rotated and were exposed to alternating periods in medium and 95% oxygen/5% CO2. Thin slices of tissue remained viable without visible damage or evidence of necrosis or apoptosis for at least 3 days.
1. Histological H&E staining of cells of ducts tissue was performed according to standard staining protocol, using two dyes: the basic dye haemotoxylin and the acidic dye eosin. Eosin reacted with cationic or basic components (also termed “acidophilic”) and stained red or pink acidophilic structures (e.g., cytoplasmic proteins, intracellular membranes, and extracellular fibers). Haematoxylin, reacted with anionic or acidic components (also termed “basophilic”) in cells and, when used in combination with aluminum ions (Al^3+), stained purplish blue basophilic structures (e.g., the nucleic acids in the nucleus and parts of the cytoplasm that contain RNA (e.g., ribosomes and the rough endoplasmic reticulum)). EHBDs were fixed in 4% paraformaldehyde (PFA) and embedded in paraffin, then sections (4-μm thick) were cut and stained with H&E.
3. Immunostaining or immunohistochemistry (IHC), which combines anatomical, immunological and biochemical techniques, was conducted in order to image discrete components in EHBDs tissues by using appropriately labeled antibodies that bind specifically to their target antigens in situ Immunohistochemistry made it possible to visualize the high-resolution distribution and localization of specific cellular components within cholangiocytes and within their proper histological context Immunostaining methodology included two main steps: sample preparation and sample staining. In the preparation step, ducts were fixed at 4% PFA for the preservation of cell morphology and tissue architecture. Thin sections of tissues (4-μm thick) attached to individual glass slides where then immunostained as described e.g., in Dipaola et al., 2013 (Hepatology 58:1486-1496, 2013), using antibodies against the cholangiocyte marker keratin 19 (K19, 1:10, Developmental Studies Hybridoma Bank, TROMAIII) and ZO-1 tight junction protein (anti-ZO1 antibody ab96587; Abcam).
4. […]

Here are results for one molecule from patent publication US20230023026A1, “METHODS FOR TREATMENT OF DAMAGED BILIARY DUCT” (Mor Research Applications Ltd., priority 2020, published 2023).

Entries after “also recorded” stand apart in the source; their conditions may differ.

For `CC(=O)N[C@@H](CS)C(=O)O` [L-NAC, N-acetyl-L-cysteine], in assay [1], the “inflammatory cell infiltration around the portal areas (H&E)” value is recorded as “reduction in inflammatory cell infiltration” and the “portal fibrosis in liver (H&E)” value was “reduced portal fibrosis”. The “liver fibrosis (Sirius Red staining)” value in assay [1] (vs untreated mouse) was “reduction in liver fibrosis”. In addition, the “histological damage, including coarse chromatin and nuclear crowding (H&E)” value in assay [2] (EHBDs from 2-week old Mdr2−/− mice, 5 μM L-NAC in fresh BEC medium, 24 hours) was “improved”. The “expression of the tight junction protein ZO-1 (immunostaining)” value in assay [2] (EHBDs from 2-week old Mdr2−/− mice, 5 μM L-NAC, 24 hours) is “restored apical tight junction expression”. Also, the “restoration of the apical tight junction ZO-1 (immunostaining)” value in assay [2] (EHBDs from 16-week old Mdr2−/− mice, 5 μM L-NAC, 24 hours) is recorded as “not seen; also recorded: poor ZO-1 restoration”. In addition, the “duct architecture / morphology (H&E)” value in assay [2] (Mdr2−/− EHBD explants, L-NAC and fresh BEC media for 24 hours) is “improved duct architecture with a more normal appearing columnar epithelium; also recorded: substantial morphological recovery”.
